In PubChem BioAssay AID330 (DTP/NCI, 2004):
Several values for one entry are separate records, joined by “and”; a condition that tells them apart may be missing. Identical values can stand only once. Toxic doses and inconclusive results are not listed. Peptide text beside a SMILES is read from it. * marks the point of attachment. Boc = CC(C)(C)OC(=O)*; NHNH2 = NN*

Tested on: P388 leukemia ip, CD2F1 mice, survival T/C
Assay: NCI In Vivo Anticancer Drug Screen. Data for tumor model P388 Leukemia (intraperitoneal) in CD2F1 (CDF1) mice
Conditions: endpoint: median survival time, higher = longer survival
In short: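 Mice carrying the transplanted tumor received test compound or vehicle. Survival was recorded in each group, and the value is the treated-group measurement divided by that of the vehicle-treated control group.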

[1] = dose: 50.0 mg/kg/injection, schedule: Q01DX009 (ip), vehicle: Klucel (hydroxypropylcellulose) (HPC)
[2] = dose: 100.0 mg/kg/injection, schedule: Q01DX009 (ip), vehicle: Klucel (hydroxypropylcellulose) (HPC)
[3] = dose: 200.0 mg/kg/injection, schedule: Q01DX009 (ip), vehicle: Klucel (hydroxypropylcellulose) (HPC)
[4] = dose: 25.0 mg/kg/injection, schedule: Q01DX005 (ip), vehicle: Klucel (hydroxypropylcellulose) (HPC)
[5] = dose: 50.0 mg/kg/injection, schedule: Q01DX005 (ip), vehicle: Klucel (hydroxypropylcellulose) (HPC)
[6] = dose: 100.0 mg/kg/injection, schedule: Q01DX005 (ip), vehicle: Klucel (hydroxypropylcellulose) (HPC)
[7] = dose: 200.0 mg/kg/injection, schedule: Q01DX005 (ip), vehicle: Klucel (hydroxypropylcellulose) (HPC)
[8] = dose: 50.0 mg/kg/injection, schedule: Q01DX009 (ip), vehicle: saline with Tween-80
[9] = dose: 100.0 mg/kg/injection, schedule: Q01DX009 (ip), vehicle: saline with Tween-80
[10] = dose: 200.0 mg/kg/injection, schedule: Q01DX009 (ip), vehicle: saline with Tween-80
[11] = dose: 6.25 mg/kg/injection, schedule: Q01DX005 (ip), vehicle: saline with Tween-80
[12] = dose: 60.0 mg/kg/injection, schedule: Q01DX005 (ip), vehicle: saline with Tween-80
[13] = dose: 120.0 mg/kg/injection, schedule: Q01DX005 (ip), vehicle: saline with Tween-80
[14] = dose: 240.0 mg/kg/injection, schedule: Q01DX005 (ip), vehicle: saline with Tween-80

SMILES: CC(=O)N(CC(=O)Nc1ccc(S(N)(=O)=O)cc1)C(C)C
- T/C [1]: 100 % of control
- T/C [2]: 99 % of control
- T/C [3]: 92 % of control

SMILES: C1CC1c1nn[nH]n1
- T/C [1]: 109 % of control
- T/C [2]: 110 % of control
- T/C [3]: 107 % of control

SMILES: CCN=C(c1ccc(NC(=O)c2ccc(C(=O)Nc3ccc(C(=NCC)N(CC)CC)cc3)cc2)cc1)N(CC)CC
- T/C (dose: 0.39 mg/kg/injection, schedule: Q01DX005 (ip), vehicle: Klucel (hydroxypropylcellulose) (HPC)): 102 % of control
- T/C (dose: 0.78 mg/kg/injection, schedule: Q01DX005 (ip), vehicle: Klucel (hydroxypropylcellulose) (HPC)): 100 % of control
- T/C (dose: 1.56 mg/kg/injection, schedule: Q01DX005 (ip), vehicle: Klucel (hydroxypropylcellulose) (HPC)): 101 % of control

SMILES: Cc1ccc(S(=O)(=O)N2CC3CC(C2)C(=O)NC3=O)cc1
- T/C [1]: 104 % of control
- T/C [2]: 107 % of control
- T/C [3]: 92 % of control

SMILES: NC(=O)C(O)C1OC(COCc2ccccc2)C(OCc2ccccc2)C1OCc1ccccc1 (centres undefined)
- T/C (dose: 12.5 mg/kg/injection, schedule: Q01DX009 (ip), vehicle: distilled water + Tween-80): 90 % of control and 104 % of control
- T/C (dose: 25.0 mg/kg/injection, schedule: Q01DX009 (ip), vehicle: distilled water + Tween-80): 92 % of control and 95 % of control
- T/C (dose: 50.0 mg/kg/injection, schedule: Q01DX009 (ip), vehicle: distilled water + Tween-80): 106 % of control and 100 % of control
- T/C (dose: 100.0 mg/kg/injection, schedule: Q01DX009 (ip), vehicle: distilled water + Tween-80): 100 % of control and 89 % of control
- T/C (dose: 200.0 mg/kg/injection, schedule: Q01DX009 (ip), vehicle: distilled water + Tween-80): 104 % of control and 97 % of control

SMILES: Cc1ccnc(NS(=O)(=O)c2ccc(N=Nc3c(O)n(-c4ccccc4)n(-c4ccccc4)c3=O)cc2)n1
- T/C [1]: 86 % of control
- T/C [2]: 86 % of control
- T/C [3]: 91 % of control

SMILES: c1ccc(Cn2nnnc2Nc2ccccc2)cc1
- T/C [4]: 94 % of control
- T/C [5]: 88 % of control and 97 % of control
- T/C [6]: 94 % of control
- T/C [7]: 90 % of control

SMILES: CSCCC(NC(=O)C(Cc1c[nH]c2ccccc12)NC(=O)OC(C)(C)C)C(=O)NN (stereo not drawn) (Boc-Trp-Met-NHNH2; configuration not given here)
- T/C [1]: 104 % of control and 105 % of control
- T/C [2]: 118 % of control
- T/C [3]: 119 % of control

SMILES: COC(=O)C1CC(c2ccccc2)N(c2ccccc2)O1 (centres undefined)
- T/C [1]: 100 % of control
- T/C [2]: 103 % of control
- T/C [3]: 100 % of control

SMILES: O=C1NN(c2ccccc2)C(=O)/C1=C\c1ccccc1
- T/C [8]: 91 % of control
- T/C (dose: 75.0 mg/kg/injection, schedule: Q01DX009 (ip), vehicle: saline with Tween-80): 100 % of control
- T/C [9]: 94 % of control
- T/C (dose: 150.0 mg/kg/injection, schedule: Q01DX009 (ip), vehicle: saline with Tween-80): 99 % of control
- T/C [10]: 95 % of control
- T/C (dose: 300.0 mg/kg/injection, schedule: Q01DX009 (ip), vehicle: saline with Tween-80): 95 % of control
- T/C (dose: 400.0 mg/kg/injection, schedule: Q01DX009 (ip), vehicle: saline with Tween-80): 114 % of control
- T/C (dose: 600.0 mg/kg/injection, schedule: Q01DX009 (ip), vehicle: saline with Tween-80): 104 % of control

SMILES: Cc1c2ccncc2cc2c1[nH]c1ccccc12
- T/C (dose: 50.0 mg/kg/injection, schedule: Q04DX003 (ip), vehicle: saline with Tween-80): 160 % of control
- T/C (dose: 66.0 mg/kg/injection, schedule: Q04DX003 (ip), vehicle: saline with Tween-80): 209 % of control

SMILES: O=P(Oc1ccccc1)(Oc1ccccc1)C(Nc1ccc(C(F)(F)F)cc1)c1ccccc1 (centres undefined)
- T/C [1]: 99 % of control
- T/C [2]: 93 % of control
- T/C [3]: 86 % of control

SMILES: CC(C)NCC(O)c1ccc(O)c(NC=O)c1 (centres undefined)
- T/C [8]: 102 % of control
- T/C [9]: 104 % of control
- T/C [10]: 100 % of control

SMILES: NC(=O)CC[n+]1cccc(C(=O)O)c1
- T/C (dose: 100.0 mg/kg/injection, schedule: Q04DX003 (ip), vehicle: saline): 100 % of control
- T/C (dose: 200.0 mg/kg/injection, schedule: Q04DX003 (ip), vehicle: saline): 95 % of control
- T/C (dose: 400.0 mg/kg/injection, schedule: Q04DX003 (ip), vehicle: saline): 95 % of control

SMILES: Cc1cc(N/N=C/c2ccccn2)nc2ccccc12
- T/C (dose: 12.5 mg/kg/injection, schedule: Q01DX005 (ip), vehicle: Klucel (hydroxypropylcellulose) (HPC)): 101 % of control
- T/C [4]: 112 % of control

SMILES: O=C1C=CC(=O)C2C1CC=C1CCCCC12 (centres undefined)
- T/C (dose: 7.5 mg/kg/injection, schedule: Q01DX009 (ip), vehicle: saline with Tween-80): 106 % of control
- T/C (dose: 15.0 mg/kg/injection, schedule: Q01DX009 (ip), vehicle: saline with Tween-80): 109 % of control
- T/C (dose: 30.0 mg/kg/injection, schedule: Q01DX009 (ip), vehicle: saline with Tween-80): 103 % of control

SMILES: C=C1C(=O)OC(C)(C)C1c1ccc(Cl)c(Cl)c1 (centres undefined)
- T/C [1]: 93 % of control
- T/C [2]: 92 % of control
- T/C [3]: 97 % of control

SMILES: NNC(=O)c1cc2ccccc2cc1O
- T/C [8]: 99 % of control
- T/C [9]: 100 % of control
- T/C [10]: 95 % of control

SMILES: CC(C)CC(NC(=O)C(N)CC(=O)O)C(=O)O (stereo not drawn) (H-Asp-Leu-OH; configuration not given here)
- T/C [5]: 100 % of control
- T/C [6]: 98 % of control
- T/C [7]: 99 % of control

SMILES: CCOC(=O)/C=C/c1nc(OCC)c(C)c(C(=O)OCC)n1
- T/C (dose: 12.5 mg/kg/injection, schedule: Q01DX009 (ip), vehicle: other): 95 % of control
- T/C (dose: 25.0 mg/kg/injection, schedule: Q01DX009 (ip), vehicle: other): 102 % of control
- T/C (dose: 50.0 mg/kg/injection, schedule: Q01DX009 (ip), vehicle: other): 98 % of control
- T/C (dose: 100.0 mg/kg/injection, schedule: Q01DX009 (ip), vehicle: other): 103 % of control
- T/C (dose: 200.0 mg/kg/injection, schedule: Q01DX009 (ip), vehicle: other): 90 % of control

SMILES: O=C1CCC(=O)N1SC(Cl)(Cl)Cl
- T/C [11]: 109 % of control
- T/C (dose: 12.5 mg/kg/injection, schedule: Q01DX005 (ip), vehicle: saline with Tween-80): 107 % of control
- T/C (dose: 25.0 mg/kg/injection, schedule: Q01DX005 (ip), vehicle: saline with Tween-80): 100 % of control

SMILES: CCO/C=C1/N=C(c2cc(Cl)cc([N+](=O)[O-])c2)OC1=O
- T/C [12]: 101 % of control
- T/C [13]: 101 % of control
- T/C [14]: 93 % of control

SMILES: CCOc1c(N=Nc2cccc(Cl)c2)c(-c2ccccc2)nn1C(=S)S
- T/C (dose: 0.78 mg/kg/injection, schedule: Q01DX005 (ip), vehicle: saline with Tween-80): 100 % of control
- T/C (dose: 1.56 mg/kg/injection, schedule: Q01DX005 (ip), vehicle: saline with Tween-80): 99 % of control
- T/C (dose: 3.13 mg/kg/injection, schedule: Q01DX005 (ip), vehicle: saline with Tween-80): 100 % of control
- T/C [11]: 99 % of control and 100 % of control

SMILES: CC(=O)OC1=CC(OC(C)=O)C2C(=O)C3=C(C(=O)c4ccccc4C3=O)C(=O)C2C1 (centres undefined)
- T/C (dose: 100.0 mg/kg/injection, schedule: Q01DX001 (ip), vehicle: Klucel (hydroxypropylcellulose) (HPC)): 105 % of control
- T/C (dose: 200.0 mg/kg/injection, schedule: Q01DX001 (ip), vehicle: Klucel (hydroxypropylcellulose) (HPC)): 102 % of control
- T/C (dose: 400.0 mg/kg/injection, schedule: Q01DX001 (ip), vehicle: Klucel (hydroxypropylcellulose) (HPC)): 93 % of control

SMILES: O=C(Nc1ccc(Cl)cc1)O/N=C/c1ccc2c(c1)OCO2
- T/C [8]: 93 % of control
- T/C [9]: 91 % of control
- T/C [10]: 86 % of control

SMILES: O=[N+]([O-])C(Br)(CO)CO
- T/C (dose: 3.12 mg/kg/injection, schedule: Q01DX009 (ip), vehicle: saline): 100 % of control
- T/C (dose: 6.25 mg/kg/injection, schedule: Q01DX009 (ip), vehicle: saline): 103 % of control
- T/C (dose: 12.5 mg/kg/injection, schedule: Q01DX009 (ip), vehicle: saline): 114 % of control and 118 % of control

SMILES: S=C(SSC(=S)N(Cc1ccccc1)Cc1ccccc1)N(Cc1ccccc1)Cc1ccccc1
- T/C [12]: 96 % of control
- T/C [13]: 103 % of control
- T/C [14]: 96 % of control

SMILES: CC1[C@@H]2[C@@H](C=C3C4CCC5Cc6nc7c(nc6C[C@@]5(C)C4C[C@H](O)[C@]32CO)CC2CCC3C4=C[C@H]5O[C@@]6(O[C@@](C)(CO)C[C@@H]6O)C(C)[C@@]5(O)[C@]4(C)[C@@H](O)CC3[C@]2(C)C7)O[C@]12CCC(C)(C)O2 (some centres undefined)
- T/C (dose: 12.5 micrograms/kg/injection, schedule: Q01DX009 (ip), vehicle: saline + alcohol): 107 % of control
- T/C (dose: 25.0 micrograms/kg/injection, schedule: Q01DX009 (ip), vehicle: saline + alcohol): 116 % of control
- T/C (dose: 50.0 micrograms/kg/injection, schedule: Q01DX009 (ip), vehicle: saline + alcohol): 107 % of control
- T/C (dose: 100.0 micrograms/kg/injection, schedule: Q01DX009 (ip), vehicle: saline + alcohol): 100 % of control
